In patent US10442803B2, “Tricyclic heterocycles as bet protein inhibitors” (Incyte Corporation, priority 2013, dated 2019) one finds IC50 data, which are given here for 34 molecules.

For this assay, the system named is KMS.12.BM cells. The experiment in a line: KMS.12.BM cell viability assay. The class given is cell-based. Particulars: 72 h; KMS.12.BM human myeloma cells, 3 days, Cell Titer-GLO ATP quantitation; read-out: KMS cellular IC50. The method, boiled down: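 Human myeloma KMS.12.BM cells, 5000 per well in RPMI/10% FBS, exposed 3 days to compound concentration range. Viability from ATP-based Cell Titer-GLO luminescence; IC50 derived.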
In general terms: Cellular ATP, detected with luciferase, serves as a proxy for viable cell number.

For orientation: IC50 means the concentration needed to halve the response being measured.

Counter-ions that a name gives are not always drawn.

Consider `Cc1cc2c(cc(Nc3nc4ccccc4[nH]3)c3nnc(C)n32)n1Cc1ccccc1` [Example 205, N-1H-Benzimidazol-2-yl-6-benzyl-1,7-dimethyl-6H-pyrrolo[2,3-e][1,2,4]triazolo[4,3-a]pyridin-4-amine trifluoroacetate salt], for which the IC50 was not above 1000 nM. Under `Cc1cc2c(cc(NC3CCNCC3)c3nnc(C)n32)n1Cc1ccccc1` [Example 206, 6-Benzyl-1,7-dimethyl-N-piperidin-4-yl-6H-pyrrolo[2,3-e][1,2,4]triazolo[4,3-a]pyridin-4-amine] stands not above 1000 nM; under `Cc1cc2c(cc(NC3CCN(C)CC3)c3nnc(C)n32)n1Cc1ccccc1` [Example 207, 6-Benzyl-1,7-dimethyl-N-(1-methylpiperidin-4-yl)-6H-pyrrolo[2,3-e][1,2,4]triazolo[4,3-a]pyridin-4-amine], not above 1000 nM. With `Cc1cc2c(cc(NCCN3CCOCC3)c3nnc(C)n32)n1Cc1ccccc1` [Example 208, 6-Benzyl-1,7-dimethyl-N-(2-morpholin-4-ylethyl)-6H-pyrrolo[2,3-e][1,2,4]triazolo[4,3-a]pyridin-4-amine] the figure was 1000 to 10000 nM; with `COCCNc1cc2c(cc(C)n2Cc2ccccc2)n2c(C)nnc12` [Example 209, 6-Benzyl-N-(2-methoxyethyl)-1,7-dimethyl-6H-pyrrolo[2,3-e][1,2,4]triazolo[4,3-a]pyridin-4-amine], 1000 to 10000 nM. With `Cc1cc2c(cc(NCCO)c3nnc(C)n32)n1Cc1ccccc1` [Example 210, 2-[(6-Benzyl-1,7-dimethyl-6H-pyrrolo[2,3-e][1,2,4]triazolo[4,3-a]pyridin-4-yl)amino]ethanol] the figure was 1000 to 10000 nM.

On to `Cc1cc2c(cc(NC3CCN(S(C)(=O)=O)CC3)c3nnc(C)n32)n1Cc1ccccc1` [Example 211, 6-Benzyl-1,7-dimethyl-N-[1-(methylsulfonyl)piperidin-4-yl]-6H-pyrrolo[2,3-e][1,2,4]triazolo[4,3-a]pyridin-4-amine], for which the IC50 was not above 1000 nM. With `CCN1CCC(Nc2cc3c(cc(C)n3Cc3ccccc3)n3c(C)nnc23)CC1` [Example 212, 6-Benzyl-N-(1-ethylpiperidin-4-yl)-1,7-dimethyl-6H-pyrrolo[2,3-e][1,2,4]triazolo[4,3-a]pyridin-4-amine] the figure was not above 1000 nM; with `Cc1cc2c(cc(NC3CCN(C(C)C)CC3)c3nnc(C)n32)n1Cc1ccccc1` [Example 213, 6-Benzyl-N-(1-isopropylpiperidin-4-yl)-1,7-dimethyl-6H-pyrrolo[2,3-e][1,2,4]triazolo[4,3-a]pyridin-4-amine], not above 1000 nM.

As for `Cc1cc2c(cc(NC3CCN(C(=O)OC(C)(C)C)CC3)c3nnc(C)n32)n1Cc1ccccc1` [Example 214, tert-Butyl 4-[(6-benzyl-1,7-dimethyl-6H-pyrrolo[2,3-e][1,2,4]triazolo[4,3-a]pyridin-4-yl)amino]piperidine-1-carboxylate], the IC50 was in the range of 1000 to 10000 nM. For `CC(=O)N1CCC(Nc2cc3c(cc(C)n3Cc3ccccc3)n3c(C)nnc23)CC1` [Example 216, N-(1-Acetylpiperidin-4-yl)-6-benzyl-1,7-dimethyl-6H-pyrrolo[2,3-e][1,2,4]triazolo[4,3-a]pyridin-4-amine], the IC50 was in the range of 1000 to 10000 nM. With `Cc1cc2c(cc(N[C@H]3CC[C@H](N)CC3)c3nnc(C)n32)n1Cc1ccccc1` [Example 217, trans-N-(6-Benzyl-1,7-dimethyl-6H-pyrrolo[2,3-e][1,2,4]triazolo[4,3-a]pyridin-4-yl)cyclohexane-1,4-diamine] the figure was not above 1000 nM; with `Cc1cc2c(cc(N[C@H]3CC[C@@H](N)CC3)c3nnc(C)n32)n1Cc1ccccc1` [Example 218, cis-N-(6-Benzyl-1,7-dimethyl-6H-pyrrolo[2,3-e][1,2,4]triazolo[4,3-a]pyridin-4-yl)cyclohexane-1,4-diamine], 1000 to 10000 nM. Under `CN[C@H]1CC[C@H](Nc2cc3c(cc(C)n3Cc3ccccc3)n3c(C)nnc23)CC1` [Example 219, trans-N-(6-Benzyl-1,7-dimethyl-6H-pyrrolo[2,3-e][1,2,4]triazolo[4,3-a]pyridin-4-yl)-N′-methylcyclohexane-1,4-diamine] stands not above 1000 nM. As for `Cc1cc2c(cc(N[C@H]3CC[C@H](N(C)C)CC3)c3nnc(C)n32)n1Cc1ccccc1` [Example 220, trans-N′-(6-Benzyl-1,7-dimethyl-6H-pyrrolo[2,3-e][1,2,4]triazolo[4,3-a]pyridin-4-yl)-N,N-dimethylcyclohexane-1,4-diamine], the IC50 is 1000 to 10000 nM. Take `CN[C@H]1CC[C@@H](Nc2cc3c(cc(C)n3Cc3ccccc3)n3c(C)nnc23)CC1` [Example 221, cis-N-(6-Benzyl-1,7-dimethyl-6H-pyrrolo[2,3-e][1,2,4]triazolo[4,3-a]pyridin-4-yl)-N′-methylcyclohexane-1,4-diamine]: the IC50 fell in the range of 1000 to 10000 nM. With `Cc1cc2c(cc(N[C@H]3CC[C@@H](N(C)C)CC3)c3nnc(C)n32)n1Cc1ccccc1` [Example 222, cis-N′-(6-Benzyl-1,7-dimethyl-6H-pyrrolo[2,3-e][1,2,4]triazolo[4,3-a]pyridin-4-yl)-N,N-dimethylcyclohexane-1,4-diamine] the figure was 1000 to 10000 nM; with `Cc1nnc2ccc3c(cc(C#N)n3Cc3ccccc3)n12` [Example 227, 6-Benzyl-1-methyl-6H-pyrrolo[2,3-e][1,2,4]triazolo[4,3-a]pyridine-7-carbonitrile trifluoroacetate salt], not above 1000 nM.

As for `Cc1cc2c(cc(NCC3CC3)c3nnc(C)n32)n1Cc1ccccc1` [Example 228, 6-Benzyl-N-(cyclopropylmethyl)-1,7-dimethyl-6H-pyrrolo[2,3-e][1,2,4]triazolo[4,3-a]pyridin-4-amine], the IC50 is 1000 to 10000 nM. With `CNC(=O)Nc1cc2c(cc(C)n2Cc2ccccc2)n2c(C)nnc12` [Example 229, 1-(6-Benzyl-1,7-dimethyl-6H-pyrrolo[2,3-e][1,2,4]triazolo[4,3-a]pyridin-4-yl)-3-methylurea] the figure was not above 1000 nM; with `Cc1cc2c(cc(NC(N)=O)c3nnc(C)n32)n1Cc1cccc(C(F)(F)F)c1` [Example 230, 1-(1,7-Dimethyl-6-(3-(trifluoromethyl)benzyl)-6H-pyrrolo[2,3-e][1,2,4]triazolo[4,3-a]pyridin-4-yl)urea], not above 1000 nM. With `Cc1cc2c(cc(NC(N)=O)c3nnc(C)n32)n1Cc1cccc(Cl)c1` [Example 231, 1-(6-(3-Chlorobenzyl)-1,7-dimethyl-6H-pyrrolo[2,3-e][1,2,4]triazolo[4,3-a]pyridin-4-yl)urea] the figure was not above 1000 nM; with `Cc1cc2c(cc(NC(N)=O)c3nnc(C)n32)n1Cc1cc(F)cc(F)c1` [Example 233, 1-(6-(3,5-Difluorobenzyl)-1,7-dimethyl-6H-pyrrolo[2,3-e][1,2,4]triazolo[4,3-a]pyridin-4-yl)urea], not above 1000 nM. With `Cc1cc2c(cc(NC(N)=O)c3nnc(C)n32)n1Cc1ccc(F)c(F)c1` [Example 234, 1-(6-(3,4-Difluorobenzyl)-1,7-dimethyl-6H-pyrrolo[2,3-e][1,2,4]triazolo[4,3-a]pyridin-4-yl)urea] the figure was not above 1000 nM; with `Cc1cc2c(cc(NC(N)=O)c3nnc(C)n32)n1Cc1cccc(F)c1` [Example 235, 1-(6-(3-Fluorobenzyl)-1,7-dimethyl-6H-pyrrolo[2,3-e][1,2,4]triazolo[4,3-a]pyridin-4-yl)urea], not above 1000 nM; with `Cc1cc2c(cc(NC(N)=O)c3nnc(C)n32)n1Cc1ccc(F)cc1F` [Example 236, 1-(6-(2,4-Difluorobenzyl)-1,7-dimethyl-6H-pyrrolo[2,3-e][1,2,4]triazolo[4,3-a]pyridin-4-yl)urea], not above 1000 nM. Regarding `Cc1cc2c(cc(NC(N)=O)c3nnc(C)n32)n1Cc1cccc(F)c1F` [Example 237, 1-(6-(2,3-Difluorobenzyl)-1,7-dimethyl-6H-pyrrolo[2,3-e][1,2,4]triazolo[4,3-a]pyridin-4-yl)urea], the IC50 is not above 1000 nM.

Turning to `Cc1cc2c(cc(NC(N)=O)c3nnc(C)n32)n1Cc1ccccc1F` [Example 238, 1-(6-(2-Fluorobenzyl)-1,7-dimethyl-6H-pyrrolo[2,3-e][1,2,4]triazolo[4,3-a]pyridin-4-yl)urea], the IC50 was 1000 to 10000 nM. For the molecule `Cc1cc2c(cc(NC(N)=O)c3nnc(C)n32)n1Cc1ccc(F)cc1` [Example 239, 1-(6-(4-Fluorobenzyl)-1,7-dimethyl-6H-pyrrolo[2,3-e][1,2,4]triazolo[4,3-a]pyridin-4-yl)urea], the IC50 is not above 1000 nM.

Consider `Cc1cc2c(cc(Nc3ccccn3)c3nnc(C)n32)n1Cc1ccccc1` [Example 240, 6-benzyl-1,7-Dimethyl-N-(pyridin-2-yl)-6H-pyrrolo[2,3-e][1,2,4]triazolo[4,3-a]pyridin-4-amine], for which the IC50 is 1000 to 10000 nM. Take `Cc1cc2c(cc(NCC3CCC3)c3nnc(C)n32)n1Cc1ccccc1` [Example 241, 6-Benzyl-N-(cyclobutylmethyl)-1,7-dimethyl-6H-pyrrolo[2,3-e][1,2,4]triazolo[4,3-a]pyridin-4-amine]: the concentration for half-maximal inhibition (IC50) fell in the range of 1000 to 10000 nM. With `Cc1cc2c(cc(NCC3CN(C(=O)OC(C)(C)C)C3)c3nnc(C)n32)n1Cc1ccccc1` [Example 243, tert-Butyl 3-((6-benzyl-1,7-dimethyl-6H-pyrrolo[2,3-e][1,2,4]triazolo[4,3-a]pyridin-4-ylamino)methyl)azetidine-1-carboxylate] the figure was 1000 to 10000 nM; with `Cc1cc2c(cc(NC3CN(C(=O)OC(C)(C)C)C3)c3nnc(C)n32)n1Cc1ccccc1` [Example 244, tert-Butyl 3-(6-benzyl-1,7-dimethyl-6H-pyrrolo[2,3-e][1,2,4]triazolo[4,3-a]pyridin-4-ylamino)azetidine-1-carboxylate], not above 1000 nM. With `Cc1cc2c(cc(NCCCN(C)C)c3nnc(C)n32)n1Cc1ccccc1` [Example 245, N1-(6-Benzyl-1,7-dimethyl-6H-pyrrolo[2,3-e][1,2,4]triazolo[4,3-a]pyridin-4-yl)-N3,N3-dimethylpropane-1,3-diamine] the figure was not above 1000 nM.
